Measured values reported in patent US20030093842A1, “Resistance marker for monocotyledons” (Biogemma UK Limited, priority 1997, published 2003).

Tested on: immature embryos of NB1
Assay: Asulam kill curve: production of embryogenic callus by immature embryos on Asulam-supplemented W3 medium
Type: cell-based, wheat
Conditions: scored after 6 weeks
Method: The tissue culture protocol was essentially as the method of Weeks et al (Plant Physiol., 102:1077-1084 (1993)). Donor plants of the South American spring wheat line designated NB1, obtained from Nickerson Seeds Limited, were grown in a glasshouse under controlled conditions. Immature ears were harvested at 14-20 days post anthesis, and the immature caryopses were removed from the ear and dehusked using forceps. Caryopses were surface-sterilised with 70% ethanol for 2 minutes and 20% Domestos™ (Lever, UK) for 20-30 minutes and then washed with sterile distilled water. Immature embryos were isolated aseptically under a stereo dissecting microscope and placed scutella uppermost on W3 medium (MS supplemented with 20 g/l sucrose and 2 mg/l 2,4-D and solidified with 6 g/l Type I agarose [Sigma, Poole, UK]). Cultures were maintained at 25° C. with a 16 h photoperiod for 5 days prior to bombardment. Immature embryos were isolated as described for example 1, plated onto W3 medium and maintained in the dark. After 5-7 days embryos were transferred to W3 medium supplemented with Asulam (Rhone-Poulenc Agrochemicals, Ongar, UK) at a range of concentrations between 0 and 5 mg/l and maintained at 25° C. with a 16 h photo period. Embryos and embryo-derived embryogenic calli were transferred to fresh selective medium every 2 weeks. The calli were scored for embryogenic response after 6 weeks.

COC(=O)NS(=O)(=O)c1ccc(N)cc1 [Asulam]
Embryogenic response (%) (Asulam 0.1 mg/l in W3 medium, (no. embryos with embryogenic callus/total no. embryos plated) × 100): 100%
Embryogenic response (%) (Asulam 0.25 mg/l in W3 medium): 64%
Embryogenic response (%) (Asulam 0.5 mg/l in W3 medium): 28%
Embryogenic response (%) (Asulam 1 mg/l in W3 medium): 0%
Embryogenic response (%) (Asulam 2 mg/l in W3 medium): 0%
Embryogenic response (%) (Asulam 3 mg/l in W3 medium): 0%
Embryogenic response (%) (Asulam 4 mg/l in W3 medium): 0%
Embryogenic response (%) (Asulam 5 mg/l in W3 medium): 0%
